Data as given in patent US20230041334A1, “METHODS AND COMPOSITIONS FOR SMOKING CESSATION” (BEHAVIORAL DIAGNOSTICS, LLC, priority 2019, published 2023).

How the values were obtained:
Format in all cases: in vivo, human
[1] = tested on: Smokers interested in stopping smoking; assay: Randomized placebo-controlled sildenafil smoking cessation trial with incentive-based programming; cessation determined by serum cotinine
Method: (§1) Smokers interested in stopping smoking were imaged using a dual energy computerized tomography (DECT) protocol to determine baseline lung density and perfusion, then randomized to receive either 20 mg of sildenafil or placebo each day. Subjects were then followed each month for three months (i.e., 30, 60 and 90 days) to asses changes in lung density via DECT and alterations in the diffusing capacity of the lung for carbon monoxide (DLCO) (e.g., improved gas exchange) in conjunction with the determination of the level of smoking cessation by means of serum cotinine levels. As per standard protocol, the research team was blinded to treatment group until the subject had exited the trial and DECT image analysis was completed. Importantly, because serum cotinine levels were used to determine smoking cessation status, subjects were not allowed to use nicotine replacement therapy. However, in order to encourage the likelihood of smoking cessation, subjects were given incentive-based programming.
In this paradigm, subjects are financially rewarded for smoking cessation (see, for example, Alford et al., 2010, PNAS USA, 107:7485-90; Iyer et al., 2016, Am. J. Resp. Crit. Care Med., 193:652-61).
The results were analyzed from the first 48 subjects who enrolled in the study. Briefly, the subjects in the cohort were largely of European ancestry, and the cohort was evenly balanced between males and females, with subjects of both genders tending to be between 30 and 60 years of age. As evidenced by their pre-experiment serum cotinine levels, they also tended to be moderate to heavy smokers.
In order to qualify for the financial incentive of $400, the subjects had to complete all 4 visits (intake and 3 follow-up visits at 30, 60 and 90 days) and had to quit smoking as evidenced by serum cotinine levels. In total, of the first 48 subjects enrolled in the study, 9 subjects completed just the intake, 7 subjects participated in both the intake and first visit, and 31 subjects completed all 4 visits in the study (Table 3). Data from one subject who dropped immediately from the study is not available.

[2] = tested on: Smokers interested in stopping smoking; assay: Lung density (inflammation) by dual energy computerized tomography (DECT) in the sildenafil trial; settings: 20 mg/day
Method: as §1

[3] = tested on: Smokers interested in stopping smoking; assay: Diffusing capacity of the lung for carbon monoxide (DLCO) in the sildenafil trial; settings: 20 mg/day
Method: as §1

[4] = group who successfully stopped smoking for 90 days on sildenafil
[5] = sildenafil without smoking cessation

CCCc1nn(C)c2c(=O)[nH]c(-c3cc(S(=O)(=O)N4CCN(C)CC4)ccc3OCC)nc12 [Sildenafil, sildenafil]
Cessation: <50% reduction of cotinine (number of subjects) ([1]; 20 mg sildenafil each day, N=24): 3 | Cessation: Visits with <2 ng/ml cotinine (number of visits) ([1]; 20 mg sildenafil each day, N=24, 30-, 60- and 90-day visits): 36 | Cessation: Quit at 90 days (number of subjects) ([1]; 20 mg sildenafil each day, N=24, by serum cotinine): 12 | Follow-up visits with negative serum cotinine values (<2 ng/ml) ([1]; 20 mg/day, 30-, 60- and 90-day visits, vs. placebo p<0.002, Exact Test): 36 of 72 | Females having achieved abstinence at 90 days (negative serum cotinine) ([1]; 20 mg/day, females): 6 | Full or partial response of treatment (≥average 50% reduction of intake cotinine levels compared to average of 30-, 60- and 90-day visits) (subjects) ([1]; 20 mg/day, intention to treat, vs. placebo p<0.02 Exact Test): 15 of 24 | Complete cessation (subjects) ([1]; 20 mg/day, intention to treat, vs. placebo p<0.09, Exact Test): 12 of 24 | Males having achieved abstinence at 90 days (negative serum cotinine) ([1]; 20 mg/day, males): 6 | Change in lung density (inflammation) [2, 4]: significant loss of lung density | Change in lung density (inflammation) [2, 5]: no significant change | Change in DLCO [3, 4]: improvement in DLCO | Change in DLCO [3, 5]: no significant change
